Tested on: adrenocortical cells prepared from an adrenoma of a patient suffering from Conn's syndrome
Assay: cells
Details: Homo sapiens, read-out: concentration effecting maximum inhibition of aldosterone secretion stimulated by angiotensin II

`N#Cc1ccc(C2CCCc3cncn32)cc1` (racemic) [5-(p-cyanophenyl)-5,6,7,8-tetrahydroimidazo[1,5-a]pyridine] was tested, and the IC (maximum) was 0.1 µM.
